Measured values reported in patent US20240316165A1, “POLYNUCLEOTIDES ENCODING PROPIONYL-COA CARBOXYLASE ALPHA AND BETA SUBUNITS FOR THE TREATMENT OF PROPIONIC ACIDEMIA” (ModernaTX, Inc., priority 2021, published 2024).

Assay: tissue kinetics of the components of the drug product in rodents
Format: in vivo
Details: tissue (tissue with the maximum mean value; not named), read-out: maximum mean tissue terminal-phase elimination half-life (t1/2) (converted)
Experimental: An initial dosing interval of q3W is proposed on the basis of the duration of biomarker response observed in pharmacology studies in Peca−/−(A138T) mice. Specifically, at the minimum efficacious dose level of 0.5 mg/kg, decreases in plasma disease biomarkers were sustained for 3 weeks before rebounding toward pretreatment levels in propionic acidemia mice. The potential for drug product accumulation is considered low, with the planned clinical dosing regimen based on the kinetics of the components of the drug product.

Question: Which half-life does the source give for `CCCCCCCCCOC(=O)CCCCCCCN(CCO)CCCCCCCC(=O)OC(CCCCCCCC)CCCCCCCC` [Compound II] here?
Answer: The half-life was 54.4 h.
